Experimental data taken from patent US12240844B2 (Voronoi, Inc., priority 2019, dated 2025).

Columns and labels:
human DYRK1A and Tau = experiment: Tau phosphorylation inhibition, ClariCELL Kinase Cell-Based Assay (Carnabio)
Experimental: Tau phosphorylation inhibitory efficacy was measured using the ClariCELL™ Kinase Cell-Based Assay service of Carnabio, located in the United States. The compounds are exposed to human embryonic kidney ([…]) cells transiently expressing human DYRK1A and Tau, and then the cells are lysed to release cellular proteins. At this time, the released Tau is captured on a plate, and the degree of phosphorylation is quantified by ELISA using an antibody specific for Tau phosphorylation.

LRRK2 (G2019S) = LRRK2 (G2019S) (Homo sapiens, UniProt Q5S007, G2019S); experiment: LRRK2 G2019S enzyme inhibition, ADP-Glo kinase assay; type: biochemical; set-up: purchased SignalChem L10-12GG
LRRK2 (G2019S), sequence (Q5S007 970-2527 G2019S limits assumed): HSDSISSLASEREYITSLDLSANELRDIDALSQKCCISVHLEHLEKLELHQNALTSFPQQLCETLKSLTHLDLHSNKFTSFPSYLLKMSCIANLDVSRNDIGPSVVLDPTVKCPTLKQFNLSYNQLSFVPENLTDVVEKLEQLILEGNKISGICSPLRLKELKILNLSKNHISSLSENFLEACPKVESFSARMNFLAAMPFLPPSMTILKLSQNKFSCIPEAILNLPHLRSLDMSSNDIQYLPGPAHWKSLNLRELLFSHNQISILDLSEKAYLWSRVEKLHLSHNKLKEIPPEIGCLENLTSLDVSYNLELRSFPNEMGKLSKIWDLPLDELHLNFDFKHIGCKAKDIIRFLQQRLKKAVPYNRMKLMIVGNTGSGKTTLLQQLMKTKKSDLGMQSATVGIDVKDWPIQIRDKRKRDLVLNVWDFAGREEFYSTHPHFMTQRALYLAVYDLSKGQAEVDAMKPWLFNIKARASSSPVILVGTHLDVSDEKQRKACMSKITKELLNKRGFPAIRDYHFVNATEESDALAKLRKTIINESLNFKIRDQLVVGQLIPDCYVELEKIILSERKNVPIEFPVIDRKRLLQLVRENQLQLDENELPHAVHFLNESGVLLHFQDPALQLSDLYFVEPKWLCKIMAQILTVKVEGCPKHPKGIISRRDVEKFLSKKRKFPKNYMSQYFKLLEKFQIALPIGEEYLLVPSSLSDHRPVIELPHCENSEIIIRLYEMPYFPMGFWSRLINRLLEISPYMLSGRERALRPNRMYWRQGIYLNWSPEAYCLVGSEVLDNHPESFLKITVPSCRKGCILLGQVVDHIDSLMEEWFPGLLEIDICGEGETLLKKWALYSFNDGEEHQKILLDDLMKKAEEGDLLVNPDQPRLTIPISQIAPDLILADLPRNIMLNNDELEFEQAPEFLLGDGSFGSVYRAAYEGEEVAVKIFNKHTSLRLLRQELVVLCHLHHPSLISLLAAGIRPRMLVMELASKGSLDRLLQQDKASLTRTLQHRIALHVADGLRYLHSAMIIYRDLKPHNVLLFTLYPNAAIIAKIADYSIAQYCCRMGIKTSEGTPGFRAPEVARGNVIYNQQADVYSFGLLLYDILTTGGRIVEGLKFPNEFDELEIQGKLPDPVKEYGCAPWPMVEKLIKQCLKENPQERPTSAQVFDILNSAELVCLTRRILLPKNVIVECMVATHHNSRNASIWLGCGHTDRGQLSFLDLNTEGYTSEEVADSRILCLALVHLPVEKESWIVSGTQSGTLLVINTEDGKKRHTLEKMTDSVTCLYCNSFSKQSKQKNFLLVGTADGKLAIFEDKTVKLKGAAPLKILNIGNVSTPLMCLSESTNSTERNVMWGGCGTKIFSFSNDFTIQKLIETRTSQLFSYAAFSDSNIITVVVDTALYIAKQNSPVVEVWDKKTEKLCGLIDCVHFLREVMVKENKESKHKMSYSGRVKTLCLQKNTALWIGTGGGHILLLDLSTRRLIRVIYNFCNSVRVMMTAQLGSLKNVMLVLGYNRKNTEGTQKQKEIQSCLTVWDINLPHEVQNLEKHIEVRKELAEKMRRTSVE
Summary of the method: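 Purified human LRRK2 G2019S (16 ng) with 25 μM ATP and 0.2 μg substrate, 2 h at 25° C in 40 mM Tris-HCl pH 7.4, 20 mM MgCl2, 0.5 mg/ml BSA, 50 μM DTT; compound at 12 final concentrations from 50 μM downward. ADP-Glo luminescence versus solvent control gave IC50 (nM).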

human GST-CLK1 (129-end) = target: T1, human GST-CLK1 (129-end) (Homo sapiens, UniProt P49759); experiment: GST-CLK1 enzyme inhibition, ADP-Glo kinase assay; type: biochemical; details: ATP 10 uM
T1 construct: purified human GST-CLK1 (129-end, Signalchem) enzyme; GST; purchased Signalchem
T1 sequence (P49759 129-484 limits assumed): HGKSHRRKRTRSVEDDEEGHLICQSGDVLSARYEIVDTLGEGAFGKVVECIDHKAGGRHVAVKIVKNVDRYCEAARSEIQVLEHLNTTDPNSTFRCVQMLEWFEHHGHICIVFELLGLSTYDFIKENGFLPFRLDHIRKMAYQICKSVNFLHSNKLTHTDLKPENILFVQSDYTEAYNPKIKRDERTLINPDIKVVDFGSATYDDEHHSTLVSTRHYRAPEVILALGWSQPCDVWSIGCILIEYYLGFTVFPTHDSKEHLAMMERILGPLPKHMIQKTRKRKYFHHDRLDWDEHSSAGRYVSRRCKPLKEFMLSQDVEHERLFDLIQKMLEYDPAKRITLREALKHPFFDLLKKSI
Summary of the method: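 GST-CLK1 (129-end, 3 ng) reacted with 10 uM ATP and substrate in 40 mM Tris-HCl pH 7.4, 20 mM MgCl2, 0.5 mg/mL BSA, 50 uM DTT, 1 h at 25° C. ADP-Glo luminescence normalised to solvent control; IC50 from triplicate data.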

[1] = target: T2, human GST-DYRK1A (full length) (Homo sapiens, UniProt Q13627); experiment: GST-DYRK1A enzyme inhibition, ADP-Glo kinase assay; type: biochemical; details: read-out: DYRK1 IC50
T2 construct: purified human GST-DYRK1A (full length, Thermo scientifics) enzyme; GST; purchased Thermo scientifics
Summary of the method: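 Full-length human GST-DYRK1A (10 ng) incubated with 10 uM ATP and specific substrate for 1 h at 25° C in 40 mM Tris-HCl pH 7.4, 20 mM MgCl2, 0.5 mg/mL BSA, 50 uM DTT. ADP formation read by ADP-Glo luminescence; IC50 (nM) versus solvent control, triplicate.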

LRRK2 = LRRK2 (Homo sapiens, UniProt Q5S007); experiment: LRRK2 enzyme inhibition, ADP-Glo kinase assay; type: biochemical; set-up: purchased Invitrogen PR8604B
LRRK2, sequence (Q5S007 970-2527 limits assumed): as the sequence (Q5S007 970-2527 G2019S limits assumed) above, with S1050G counted along it
Summary of the method: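 Purified human LRRK2 (25 ng) in 40 mM Tris-HCl pH7.4, 20 mM MgCl2, 0.5 mg/ml BSA, 50 μM DTT with 10 μM ATP and substrate ([…]), 2 h at 25° C. Final compound 50 to 0.000001024 μM, 12-point dilution. ADP-Glo luminescence vs solvent control; IC50 (nM).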

MDA-MB-231 cell line = experiment: MDA-MB-231 cancer cell proliferation inhibition (Cell Titer-Glo); type: cell-based; details: Homo sapiens, MDA-MB-231 triple-negative breast cancer cell line, 72 hours
Experimental: (§1) In order to evaluate the cancer cell proliferation inhibitory activity of the compounds of the present invention, the following experiments were performed.
(§2) To evaluate the cancer cell proliferation inhibitory effect, the cell growth rate analysis was performed while culturing MDA-MB-231 cell line (Korean Cell Line Bank #30026) and MDA-MB-468 cell line as the triple-negative breast cancer cell line, and SHP-77 (ATCC #CRL-2195) as the small cell lung cancer cell line in DMEM (HyClone #SH30243) and RPMI medium (HyClone #SH3027.01), respectively. More specifically, the cell lines were each plated at 2000 cells/100 μl in each well of a 96-well flat-bottom plate (coming #3903), and then the example compounds having eleven concentrations which were diluted by ⅓ so that the final concentrations were 10.000000, 3.333333, 1.111111, 0.370370, 0.123457, 0.041152, 0.013717, 0.004572, 0.001524, 0.000508 and 0.000169 μM were treated. After 72 hours, 100 μl of Cell Titer-Glo (Promega G7573) was treated, incubated at RT for 10 minutes, and then luminescence was measured using a microplate reader. The measured luminescence degree was calculated as GI50 using Prism (version 8.2 GraphPad) software.
(§3) In the table below, the following designations were used for the evaluation of proliferation inhibitory activity.

SHP-77 = SHP-77 cancer cell proliferation inhibition (Cell Titer-Glo); type: cell-based; details: Homo sapiens, SHP77, SHP-77 small cell lung cancer cell line, 72 hours
Experimental: as §1, §2, §3

IL-6 = IL-6 secretion inhibition in LPS-treated THP-1 cells (ELISA); type: cell-based; details: Homo sapiens, compound 0.5 μM, LPS 500 ng/ml, 24 hours, read-out: THP1/IL6 (% inhib)
Experimental: In order to evaluate the cytokine secretion inhibitory efficacy of mononuclear cells, THP-1 cells (ATCC, #TIB-202) as a human-derived monocyte cell line were cultured in RPMI-1640 (Hyclone, SH30027.01) media in which 10% fetal bovine serum (Hyclone, SH30084.03), 1% penicillin streptomycin (Welgene, LS202-02) and 50 μM 2-Mercaptoethanol (Gibco, #21985023) were contained. In the test, 1.5-2×10^5 cells/250 μl per each well were dispensed in a 48-well plate (SPL, #30048) and incubated in an incubator at 37° C. and 5% CO2 for 16 hours, and then the compounds were diluted in DMSO so that the final concentration was 0.5 μM. It was treated with Lipopolysaccharides (LPS) (sigma, #L6529) […]. After treatment with the compound, the LPS was treated so that the final concentration was 500 ng/ml, and then the cell culture fluid was collected after culturing for 24 hours, and the degrees of the cytokines IL-6 (R&D system, #D6050) and TNF-α (R&D system, #DTA00D) contained in the culture fluid were collected using each ELISA kit. After performing the experiment according to the manufacturer's instructions, the absorbance at 450 nm was measured and analyzed using a microplate reader.

Compound	IC50 (LRRK2 (G2019S))	IC50 (human GST-CLK1 (129-end))	IC50 [1]	IC50 (LRRK2)	GI50 (MDA-MB-231 cell line)	GI50 (SHP-77)	inhibition at 0.25 µM (human DYRK1A and Tau)	inhibition at 0.5 µM (human DYRK1A and Tau)	inhibition at 1 µM (human DYRK1A and Tau)	inhibition at 0.5 µM (IL-6)
CCNc1cc(Nc2ccc(S(=O)(=O)N3CCC(N4CCOCC4)CC3)cc2OC)nc2[nH]cc(C(F)(F)F)c12 [Example 185, N^4-ethyl-N^6-(2-methoxy-4-((4-morpholinopiperidin-1-yl)sulfonyl)phenyl)-3-(trifluoromethyl)-1H-pyrrolo[2,3-b]pyridine-4,6-diamine]	< 100 nM	101 to 300 nM	101 to 300 nM	< 100 nM	51 to 100 nM	< 50 nM	22.9%	37.7%	56.2%	
COc1cc(S(=O)(=O)N2CCC(N3CCOCC3)CC2)ccc1Nc1cc(NC2CCC2)c2c(C#N)c[nH]c2n1 [Example 135, 4-(cyclobutylamino)-6-((2-methoxy-4-((4-morpholinopiperidin-1-yl)sulfonyl)phenyl)amino)-1H-pyrrolo[2,3-b]pyridine-3-carbonitrile]	< 100 nM	301 to 1000 nM	301 to 1000 nM	< 100 nM	51 to 100 nM	< 50 nM				
COCCNc1cc(Nc2ccc(S(=O)(=O)N3CCOCC3)cc2OC)nc2[nH]cc(C#N)c12 [Example 129, 6-((2-methoxy-4-(morpholinosulfonyl)phenyl)amino)-4-((2-methoxyethyl)amino)-1H-pyrrolo[2,3-b]pyridine-3-carbonitrile]	< 100 nM	301 to 1000 nM	301 to 1000 nM	< 100 nM	101 to 300 nM	< 50 nM				
CNc1cc(Nc2ccc(S(=O)(=O)N3CCOCC3)cc2OC)nc2[nH]cc(C#N)c12 [Example 131, 6-((2-methoxy-4-(morpholinosulfonyl)phenyl)amino)-4-(methylamino)-1H-pyrrolo[2,3-b]pyridine-3-carbonitrile]	< 100 nM	301 to 1000 nM	301 to 1000 nM	< 100 nM	51 to 100 nM	< 50 nM				
CCNc1cc(Nc2ccc(S(=O)(=O)N3CCC(N4CCOCC4)CC3)cc2OC)nc2[nH]cc(C#N)c12 [Example 138, 4-(ethylamino)-6-((2-methoxy-4-((4-morpholinopiperidin-1-yl)sulfonyl)phenyl)amino)-1H-pyrrolo[2,3-b]pyridine-3-carbonitrile]	< 100 nM	301 to 1000 nM	101 to 300 nM	< 100 nM	< 50 nM	< 50 nM				
COc1cc(S(=O)(=O)N2CCOCC2)ccc1Nc1cc(NC2CCC2)c2c(C#N)c[nH]c2n1 [Example 128, 4-(cyclobutylamino)-6-((2-methoxy-4-(morpholinosulfonyl)phenyl)amino)-1H-pyrrolo[2,3-b]pyridine-3-carbonitrile]	301 to 1000 nM	301 to 1000 nM	301 to 1000 nM	< 100 nM	51 to 100 nM	< 50 nM				
COc1cc(S(=O)(=O)N2CCOCC2)ccc1Nc1cc(NC2CC2)c2c(C#N)c[nH]c2n1 [Example 127, 4-(cyclopropylamino)-6-((2-methoxy-4-(morpholinosulfonyl)phenyl)amino)-1H-pyrrolo[2,3-b]pyridine-3-carbonitrile]	101 to 300 nM	301 to 1000 nM	301 to 1000 nM	< 100 nM	51 to 100 nM	< 50 nM				
COc1cc(S(=O)(=O)N2CCOCC2)ccc1Nc1cc(NCCS(C)(=O)=O)c2c(C#N)c[nH]c2n1 [Example 130, 6-((2-methoxy-4-(morpholinosulfonyl)phenyl)amino)-4-((2-(methylsulfonyl)ethyl)amino)-1H-pyrrolo[2,3-b]pyridine-3-carbonitrile]	< 100 nM	301 to 1000 nM	101 to 300 nM	< 100 nM	301 to 1000 nM	301 to 1000 nM				

More lines, main results first:

IC50 (LRRK2 (G2019S))	IC50 (human GST-CLK1 (129-end))	IC50 [1]	IC50 (LRRK2)	GI50 (MDA-MB-231 cell line)	GI50 (SHP-77)	Compound	inhibition at 0.25 µM (human DYRK1A and Tau)	inhibition at 0.5 µM (human DYRK1A and Tau)	inhibition at 1 µM (human DYRK1A and Tau)	inhibition at 0.5 µM (IL-6)
< 100 nM	< 100 nM	< 100 nM	< 100 nM			COCCNc1cc(Nc2ccc(C(=O)N3CCOCC3)c3c2OCC3)nc2[nH]cc(C(F)(F)F)c12 [Example 54, (7-((4-((2-methoxyethyl)amino)-3-(trifluoromethyl)-1H-pyrrolo[2,3-b]pyridin-6-yl)amino)-2,3-dihydrobenzofuran-4-yl)(morpholino) methanone]				46.9%
301 to 1000 nM	301 to 1000 nM	< 100 nM	301 to 1000 nM	301 to 1000 nM	301 to 1000 nM	O=S(=O)(c1ccc(Nc2cc(C3CC3)c3c(C(F)(F)F)c[nH]c3n2)c2c1OCCO2)N1CCOCC1 [Example 100, 4-cyclopropyl-N-(8-(morpholinosulfonyl)-2,3-dihydrobenzo[b] [1,4]dioxin-5-yl)-3-(trifluoromethyl)-1H-pyrrolo[2,3-b]pyridine-6-amine]				
301 to 1000 nM	301 to 1000 nM	301 to 1000 nM	301 to 1000 nM	301 to 1000 nM	301 to 1000 nM	COc1cc(S(=O)(=O)N2CCOCC2)ccc1Nc1cc(NC2CC2)c2c(C(F)(F)F)c[nH]c2n1 [Example 186, N^4-cyclopropyl-N^6-(2-methoxy-4-(morpholinosulfonyl)phenyl)-3-(trifluoromethyl)-1H-pyrrolo[2,3-b]pyridine-4,6-diamine]				
	301 to 1000 nM	< 100 nM	301 to 1000 nM	301 to 1000 nM	301 to 1000 nM	CCCNc1cc(Nc2ccc(S(=O)(=O)N3CCC(N4CCOCC4)CC3)cc2OC)nc2[nH]cc(C(F)(F)F)c12 [Example 40, N^6-(2-methoxy-4-((4-morpholinopiperidin-1-yl)sulfonyl)phenyl)-N^4-propyl-3-(trifluoromethyl)-1H-pyrrolo[2,3-b]pyridine-4,6-diamine]	9.2%	15.2%	38.7%	
301 to 1000 nM	301 to 1000 nM	301 to 1000 nM	301 to 1000 nM	301 to 1000 nM	301 to 1000 nM	COc1cc(S(=O)(=O)N2CCOCC2)ccc1Nc1cc(NCC(C)C)c2c(C(F)(F)F)c[nH]c2n1 [Example 189, N^4-isobutyl-N^6-(2-methoxy-4-(morpholinosulfonyl)phenyl)-3-(trifluoromethyl)-1H-pyrrolo[2,3-b]pyridine-4,6-diamine]				
